According to PubChem BioAssay AID342 (DTP/NCI, 2004):
Values joined by “and” are separate entries in the source; they are usually repeats but may differ in a detail not shown here. Identical values can stand only once.

Test system: Swiss mice, Sarcoma 180 sc, mean tumor weight T/C
Assay: NCI In Vivo Anticancer Drug Screen. Data for tumor model Sarcoma 180 (subcutaneous) in Swiss mice
Conditions: endpoint: mean tumor weight, higher = larger tumour
How it was run: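 Tumor-bearing mice, transplantable tumor; readout survival or tumor size; result = T/C, treated vs vehicle control.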

Structure (SMILES): C[C@]12CC[C@H](OC3OC(CO)C(O)C(O)C3O)C[C@H]1CC[C@@H]1[C@@H]2CC[C@]2(C)[C@@H](C3=CCOC3=O)CC[C@]12O (some centres not stated)
- T/C (dose: 0.01 mg/kg/injection, schedule: Q01DX007 (ip), vehicle: carboxymethylcellulose (CMC)): 60 % of control
- T/C (dose: 0.05 mg/kg/injection, schedule: Q01DX007 (ip), vehicle: carboxymethylcellulose (CMC)): 40 % of control
- T/C (dose: 0.12 mg/kg/injection, schedule: Q03DX003 (ip), vehicle: carboxymethylcellulose (CMC)): 81 % of control
- T/C (dose: 0.12 mg/kg/injection, schedule: Q#A X014 (ip), vehicle: carboxymethylcellulose (CMC)): 99 % of control
- T/C (dose: 0.2 mg/kg/injection, schedule: Q01DX007 (ip), vehicle: carboxymethylcellulose (CMC)): 46 % of control
- T/C (dose: 0.25 mg/kg/injection, schedule: Q01DX007 (ip), vehicle: saline): 82 % of control
- T/C (dose: 0.25 mg/kg/injection, schedule: Q01DX007 (ip), vehicle: water): 86 % of control
- T/C (dose: 0.25 mg/kg/injection, schedule: Q03DX003 (ip), vehicle: carboxymethylcellulose (CMC)): 75 % of control
- T/C (dose: 0.25 mg/kg/injection, schedule: Q#A X014 (ip), vehicle: carboxymethylcellulose (CMC)): 57 % of control
- T/C (dose: 0.26 mg/kg/injection, schedule: Q01DX007 (ip), vehicle: saline): 49 % of control and 51 % of control
- T/C (dose: 0.38 mg/kg/injection, schedule: Q03DX003 (ip), vehicle: carboxymethylcellulose (CMC)): 105 % of control and 108 % of control
- T/C (dose: 0.5 mg/kg/injection, schedule: Q01DX007 (ip), vehicle: saline): 55 % of control
- T/C (dose: 0.5 mg/kg/injection, schedule: Q01DX007 (ip), vehicle: water): 90 % of control
- T/C (dose: 0.5 mg/kg/injection, schedule: Q03DX003 (ip), vehicle: carboxymethylcellulose (CMC)): 92 % of control
- T/C (dose: 0.5 mg/kg/injection, schedule: Q#A X014 (ip), vehicle: carboxymethylcellulose (CMC)): 53 % of control
- T/C (dose: 0.6 mg/kg/injection, schedule: Q01DX007 (ip), vehicle: saline): 34 % of control and 57 % of control
- T/C (dose: 0.8 mg/kg/injection, schedule: Q01DX007 (ip), vehicle: carboxymethylcellulose (CMC)): 27 % of control
- T/C (dose: 0.9 mg/kg/injection, schedule: Q01DX007 (ip), vehicle: saline): 47 % of control and 51 % of control
- T/C (dose: 0.96 mg/kg/injection, schedule: Q01DX007 (ip), vehicle: saline): 13 % of control
- T/C (dose: 1.0 mg/kg/injection, schedule: Q01DX007 (ip), vehicle: carboxymethylcellulose (CMC)): 28 % of control
- T/C (dose: 1.0 mg/kg/injection, schedule: Q01DX007 (ip), vehicle: saline): 40 % of control
- T/C (dose: 1.0 mg/kg/injection, schedule: Q01DX007 (ip), vehicle: water): 40 % of control
- T/C (dose: 1.0 mg/kg/injection, schedule: Q#A X014 (ip), vehicle: carboxymethylcellulose (CMC)): 35 % of control
- T/C (dose: 1.3 mg/kg/injection, schedule: Q01DX007 (ip), vehicle: saline): 32 % of control and 38 % of control
- T/C (dose: 1.9 mg/kg/injection, schedule: Q01DX007 (ip), vehicle: saline): 13 % of control
- T/C (dose: 2.0 mg/kg/injection, schedule: Q01DX007 (ip), vehicle: saline): 22 % of control and 43 % of control
- T/C (dose: 10.4 mg/kg/injection, schedule: Q01DX007 (oral), vehicle: carboxymethylcellulose (CMC)): 89 % of control
- T/C (dose: 16.0 mg/kg/injection, schedule: Q01DX007 (oral), vehicle: carboxymethylcellulose (CMC)): 95 % of control
- T/C (dose: 24.0 mg/kg/injection, schedule: Q01DX007 (oral), vehicle: carboxymethylcellulose (CMC)): 110 % of control
- T/C (dose: 36.0 mg/kg/injection, schedule: Q01DX007 (oral), vehicle: carboxymethylcellulose (CMC)): 74 % of control
- T/C (dose: 54.0 mg/kg/injection, schedule: Q01DX007 (oral), vehicle: carboxymethylcellulose (CMC)): 101 % of control
- T/C (dose: 80.0 mg/kg/injection, schedule: Q01DX007 (oral), vehicle: carboxymethylcellulose (CMC)): 105 % of control
- T/C (dose: 81.0 mg/kg/injection, schedule: Q01DX007 (oral), vehicle: carboxymethylcellulose (CMC)): 100 % of control
- T/C (dose: 120.0 mg/kg/injection, schedule: Q01DX007 (oral), vehicle: carboxymethylcellulose (CMC)): 91 % of control
- T/C (dose: 150.0 mg/kg/injection, schedule: Q01DX007 (oral), vehicle: carboxymethylcellulose (CMC)): 82 % of control
- T/C (dose: 160.0 mg/kg/injection, schedule: Q01DX007 (oral), vehicle: carboxymethylcellulose (CMC)): 85 % of control
- T/C (dose: 300.0 mg/kg/injection, schedule: Q01DX007 (oral), vehicle: carboxymethylcellulose (CMC)): 97 % of control
- T/C (dose: 500.0 mg/kg/injection, schedule: Q01DX007 (oral), vehicle: carboxymethylcellulose (CMC)): 96 % of control
- T/C (dose: 15.0 micrograms/kg/injection, schedule: Q01DX007 (ip), vehicle: saline): 73 % of control and 89 % of control
- T/C (dose: 120.0 micrograms/kg/injection, schedule: Q01DX007 (ip), vehicle: saline): 65 % of control and 77 % of control
- T/C (dose: 125.0 micrograms/kg/injection, schedule: Q01DX007 (ip), vehicle: carboxymethylcellulose (CMC)): 85 % of control and 99 % of control
- T/C (dose: 240.0 micrograms/kg/injection, schedule: Q01DX007 (ip), vehicle: saline): 73 % of control and 84 % of control
- T/C (dose: 250.0 micrograms/kg/injection, schedule: Q01DX007 (ip), vehicle: carboxymethylcellulose (CMC)): 72 % of control and 79 % of control
- T/C (dose: 500.0 micrograms/kg/injection, schedule: Q01DX007 (ip), vehicle: carboxymethylcellulose (CMC)): 47 % of control and 62 % of control
- T/C (dose: 960.0 micrograms/kg/injection, schedule: Q01DX007 (ip), vehicle: saline): 33 % of control
- T/C (dose: 2000.0 micrograms/kg/injection, schedule: Q01DX007 (ip), vehicle: carboxymethylcellulose (CMC)): 68 % of control

Structure (SMILES): S=P(N1CCCCCC1)(N1CC1)N1CC1
- T/C (dose: 6.0 mg/kg/injection, schedule: Q01DX007 (ip), vehicle: carboxymethylcellulose (CMC)): 90 % of control
- T/C (dose: 6.5 mg/kg/injection, schedule: Q#A X014 (ip), vehicle: methylcellulose (MC)): 52 % of control
- T/C (dose: 9.0 mg/kg/injection, schedule: Q01DX007 (ip), vehicle: carboxymethylcellulose (CMC)): 60 % of control
- T/C (dose: 10.0 mg/kg/injection, schedule: Q#A X014 (ip), vehicle: methylcellulose (MC)): 60 % of control
- T/C (dose: 13.0 mg/kg/injection, schedule: Q01DX007 (ip), vehicle: carboxymethylcellulose (CMC)): 74 % of control
- T/C (dose: 15.0 mg/kg/injection, schedule: Q#A X014 (ip), vehicle: methylcellulose (MC)): 53 % of control
- T/C (dose: 20.0 mg/kg/injection, schedule: Q01DX007 (ip), vehicle: carboxymethylcellulose (CMC)): 62 % of control
- T/C (dose: 22.5 mg/kg/injection, schedule: Q#A X014 (ip), vehicle: methylcellulose (MC)): 23 % of control
- T/C (dose: 29.0 mg/kg/injection, schedule: Q01DX007 (ip), vehicle: carboxymethylcellulose (CMC)): 89 % of control
- T/C (dose: 45.0 mg/kg/injection, schedule: Q01DX007 (ip), vehicle: carboxymethylcellulose (CMC)): 57 % of control
- T/C (dose: 45.0 mg/kg/injection, schedule: Q01DX007 (ip), vehicle: saline): 25 % of control
- T/C (dose: 67.0 mg/kg/injection, schedule: Q01DX007 (ip), vehicle: carboxymethylcellulose (CMC)): 38 % of control
- T/C (dose: 90.0 mg/kg/injection, schedule: Q01DX007 (ip), vehicle: saline): 12 % of control

Structure (SMILES): N#[N+]c1nc[nH]c1C(N)=O
- T/C (dose: 0.62 mg/kg/injection, schedule: Q#A X014 (ip), vehicle: methylcellulose (MC)): 61 % of control
- T/C (dose: 1.25 mg/kg/injection, schedule: Q#A X014 (ip), vehicle: methylcellulose (MC)): 53 % of control
- T/C (dose: 2.5 mg/kg/injection, schedule: Q#A X014 (ip), vehicle: methylcellulose (MC)): 55 % of control

Structure (SMILES): O=C(O)Cc1ccc(C2CCCCC2)cc1
- T/C (dose: 37.5 mg/kg/injection, schedule: Q01DX007 (ip), vehicle: carboxymethylcellulose (CMC)): 120 % of control
- T/C (dose: 75.0 mg/kg/injection, schedule: Q01DX007 (ip), vehicle: carboxymethylcellulose (CMC)): 115 % of control
- T/C (dose: 150.0 mg/kg/injection, schedule: Q01DX007 (ip), vehicle: carboxymethylcellulose (CMC)): 80 % of control
- T/C (dose: 300.0 mg/kg/injection, schedule: Q01DX007 (ip), vehicle: carboxymethylcellulose (CMC)): 70 % of control and 75 % of control
- T/C (dose: 600.0 mg/kg/injection, schedule: Q01DX007 (ip), vehicle: carboxymethylcellulose (CMC)): 67 % of control

Structure (SMILES): C[C@]12C=CC(=O)C=C1CC[C@@H]1[C@@H]2[C@@H](O)C[C@@]2(C)[C@H]1CC[C@]2(O)C(=O)COC(=O)C1CCCC1
- T/C (dose: 3.5 mg/kg/injection, schedule: Q#A X014 (sc), vehicle: water): 68 % of control
- T/C (dose: 5.0 mg/kg/injection, schedule: Q#A X014 (sc), vehicle: water): 35 % of control
- T/C (dose: 7.5 mg/kg/injection, schedule: Q#A X014 (sc), vehicle: water): 49 % of control
- T/C (dose: 11.5 mg/kg/injection, schedule: Q#A X014 (sc), vehicle: water): 47 % of control
- T/C (dose: 17.5 mg/kg/injection, schedule: Q#A X014 (sc), vehicle: water): 32 % of control
